Assay results reported in US20120009203A1, “Depletion of cancer stem cells” (priority 2010, published 2012).
“Also recorded” adds a separate entry of the source.

Assays:
OSCCs = assay: Cell death of OSCCs by propidium iodide staining; format: cell-based, human; details: for levels of cell death (propidium iodide staining): overnight; for Dose dependent effect on oral tumors: UC-1 (OSCCs, differentiated oral tumor), FIG. 25
Method: (§1) OSCSCs and OSCCs were treated with HEMA (1:600) and the chemotherapeutic drug cisplatinum at 10 μg/ml, 40 μg/ml and 80 μg/ml. After an overnight incubation the levels of cell death in each tumor type was determined using propidium iodide staining.
(§2) OSCSCs and OSCCs were irradiated at 2 Gy, 10 Gy and 20 Gy and left untreated or treated with chemotherapeutic drug cisplatinum at 40 μg/ml. After an overnight incubation the levels of cell death in each tumor type was determined using propidium iodide staining.
(§3) OSCSC and OSCCs were treated with Paclitaxel at 10 μg/ml, 40 μg/ml and 80 μg/ml in the presence and absence of NAC (20 mM) and after an overnight incubation the levels of cell death were determined using propidium iodide staining.

OSCSCs [1] = assay: Cell death of OSCSCs by propidium iodide staining; format: cell-based, human; details: overnight
Method: as §1, §2, §3

OSCSCs [2] = assay: Cell death of OSCSCs by propidium iodide staining; format: cell-based, human; details: UC2 (OSCSCs, stem-like oral tumors); FIG. 25
pancreatic cells (BXPC3) = assay: Cell death of BXPC3 pancreatic cells; format: cell-based; details: FIG. 26
lung (A549) tumors = assay: Cell death of A549 lung tumors; format: cell-based; details: A549 pre-treated 5 days with supernatants from anergized NK cells (IL-2+anti-CD16 mAb), then Cisplatin overnight; FIG. 32
Method: NK treatments were carried out for 24 hours before the supernatants were removed and used to treat A549 lung tumors for 5 days. All the NK supernatant treated lung tumors were then washed and treated with different concentrations of Cisplatin as shown in the figure and incubated overnight before they were stained with propidium iodide to determine cell death in each sample.

undifferentiated MSCs = assay: Cell death of MSCs versus osteoblasts, flow cytometry of PI stained cells; format: cell-based, human; details: undifferentiated MSCs compared to differentiated osteoblasts; different concentrations of HEMA; overnight; FIG. 8F
Method: FIG. 8. […] After 2 days of co-cultures, Alkaline Phosphatase staining was performed. […] The ALP stain densities for each well were determined using photoshop software (B). […] After 2 days of co-cultures Alkaline Phosphatase staining was performed. […] The ALP stain densities for each well were determined using photoshop software (D). Stem cells and Osteoblasts were cultured with and without untreated PBMCs as described above and after two days of incubation the supernatants were removed and subjected to specific ELISA for VEGF (E). Undifferentiated MSCs and those differentiated to osteoblasts were cultured in the absence and presence of different concentrations of HEMA as indicated in the figure and the levels of cell death were determined by flow cytometric analysis of PI stained MSCs and osteoblasts after an overnight incubation (F). […] After an overnight incubation, the cells were washed and B7H1 surface expression was determined on MSC gated populations. Isotype control antibodies were used as controls (I). MSCs were left untreated or treated with IFN-γ (500 u/ml). After an overnight incubation, MSCs were washed and the B7H1 surface expression was determined on MSC.
Moreover, when MSCs were cultured with NK cells alone or NK cells with monocytes significant induction of B7H1 surface expression could be observed in surviving MSCs (FIG. 8I). […]

[3] = OSCCs, HEMA 1:600, cisplatinum 10, 40 and 80 μg/ml, FIG. 15
[4] = OSCSCs, HEMA 1:600, cisplatinum 10, 40 and 80 μg/ml, FIG. 15

## CC(=O)O[C@H]1C(=O)[C@@]2(C)[C@H]([C@H](OC(=O)c3ccccc3)[C@]3(O)C[C@H](OC(=O)[C@H](O)[C@@H](NC(=O)c4ccccc4)c4ccccc4)C(C)=C1C3(C)C)[C@]1(OC(C)=O)CO[C@@H]1C[C@@H]2O [Paclitaxel, paclitaxel]
OSCCs; OSCCs, Paclitaxel 10, 40 and 80 μg/ml with and without NAC 20 mM, FIG. 17
  levels of cell death (propidium iodide staining): lysed both cell types
OSCCs
  Dose dependent effect on oral tumors: affects both cell types similarly
OSCSCs [1]; OSCSCs (cancer stem cells), Paclitaxel 10, 40 and 80 μg/ml with and without NAC 20 mM, FIG. 17
  levels of cell death (propidium iodide staining): Lysis
OSCSCs [1]; OSCSCs (cancer stem cells), Paclitaxel 10, 40 and 80 μg/ml with and without NAC 20 mM, FIG. 17, listed as paclitaxel
  levels of cell death (propidium iodide staining): lysed both cell types
OSCSCs [2]
  Dose dependent effect on oral tumors: affects both cell types similarly

## CC(=O)N[C@@H](CS)C(=O)O [NAC, N-acetylcysteine]
Pancreatic cells (BXPC3); in the presence of cisplatin
  effect of NAC on cisplatin mediated killing of pancreatic cells: inhibits cisplatin mediated killing

## N.N.[Cl][Pt][Cl] [Cisplatin, cisplatin]
OSCCs; OSCCs irradiated at 2, 10, 20 Gy, cisplatinum 40 μg/ml, FIG. 16
  levels of cell death (propidium iodide staining): lysed OSCCs significantly
OSCCs; [3]
  levels of cell death (propidium iodide staining): lysed OSCCs significantly
OSCCs
  Dose dependent effect on oral tumors: increased effect on differentiated OSCCs
OSCSCs [1]; OSCSCs irradiated at 2, 10, 20 Gy, cisplatinum 40 μg/ml, FIG. 16
  levels of cell death (propidium iodide staining): significantly more resistant; also recorded: Resistance
OSCSCs [1]; [4]
  levels of cell death (propidium iodide staining): significantly more resistant; also recorded: Resistance
Pancreatic cells (BXPC3)
  cisplatin mediated killing of pancreatic cells: Dose dependent increase
Lung (A549) tumors
  cell death by Cisplatin (propidium iodide): highest induction of cell death by Cisplatin
OSCSCs [2]
  Dose dependent effect on oral tumors: does not kill OSCSCs

## C=C(C)C(=O)OCCO [HEMA]
OSCCs; [3]
  levels of cell death (propidium iodide staining): lysed OSCCs significantly
OSCSCs [1]; [4]
  levels of cell death (propidium iodide staining): significantly more resistant; also recorded: Resistance
Undifferentiated MSCs
  levels of cell death (PI staining, flow cytometry): induced significant cell death
